From patent US11555210B2, “Microbe having increased tolerance to phenolic fermentation inhibitors” (University of Ottawa, priority 2018, dated 2023)

Legend:
Format in all cases: cell-based, S. cerevisiae
[1] = test system: bna7Δ (YKB4649); assay: serial dilution spot assay on YPD agar plates; conditions: 10 mM FA, 35 mM 4-HBA or 1 mM CA, 48 hr at 30° C.
Protocol: In addition, deletion mutants were generated for genes involved in the tryptophan catabolic pathway and their growth was assayed on solid media containing 10 mM ferulic acid. In particular, wild type yeast (BY4741) along with deletion mutants aro8Δ (YKB4799), bna7Δ (YKB4649), bna2Δ (YKB4798), bna6Δ (YKB4844), bna5Δ (YKB4845), bna4Δ (YKB4846) and bna1Δ (YKB4729) were grown to mid log phase ([…] 0.5-0.6) in YPD medium prior to being diluted to an OD600 of 0.1. Four 10-fold serial dilutions were spotted onto YPD agar plates either containing 10 mM ferulic acid or no ferulic acid. Plates were incubated for 48 hr at 30° C. Images of the plates were taken with the ChemiDoc XRS Molecular Imaging system (Biorad) and images are representative of three biological replicates.
Experiments were also conducted to determine if deletion of BNA7 could provide protection to 4-hydroxybenzoic acid or coniferyl aldehyde (CA). Wild type (BY4741) and bna7A (YKB4649) strains were grown to mid log phase in YPD medium prior to being diluted into fresh medium to an OD600 of 0.1. Four 10-fold serial dilutions were spotted onto YPD agar plates containing either no compound (Untreated), 10 mM ferulic acid (FA), 35 mM 4-hydroxybenzoic acid (4-HBA) or 1 mM coniferyl aldehyde (CA). Plates were incubated for 48 hr at 30° C. and images are representative of three biological replicates.

[2] = test system: zwf1Δ strains; assay: ROS measurement by H2DCFDA fluorescence microscopy; conditions: 2 mM coniferyl aldehyde; ρ=0.012
Protocol: For all microscopy experiments overnight cultures of wild-type yeast grown at 30° C. were re-suspended at an OD600 of 0.1 in YPD medium and allowed to reach mid-log phase prior to imaging. Measurement of ROS was performed as previously described (Kennedy et al., 2016, Sci Rep. 6, 19332). Briefly cells were incubated with 10 μM 2′,7′-dichlorodihydrofluorescein diacetate (H2DCFDA; Invitrogen cat. #D399) for 15 min in the dark. Cells were washed in sterile PBS to remove traces of the dye after which they were re-suspended in YPD medium alone, or YPD supplemented with either 2 mM coniferyl aldehyde, 10 mM ferulic acid or 50 mM 4-hydroxybenzoic acid or hydrogen peroxide for 1 hour at 30° C. […]
Analysis of H2DCFDA fluorescence was performed using Velocity Software V4 (Perkin Elmer). Image J software was used to quantify the H2DCFDA fluorescence signal in cells as described by Schneider et al (Schneider et al., 2012, Nature Methods, 9, 671-675) with a slight modification. Briefly, background fluorescence was subtracted from the images and the total fluorescence of all the cells in the image was measured and divided by the number of cells in the image. […] The ratio of fluorescence per cell of treated cultures was divided by that of untreated cultures to eliminate background endogenous ROS production. […]

[3] = test system: wild-type yeast (BY4741); assay: ROS measurement by H2DCFDA fluorescence microscopy; conditions: 2 mM CA, 10 mM FA or 50 mM 4-HBA, 1 hour at 30° C.
Protocol: Measurement of ROS was performed as previously described (Kennedy et al., 2016, Sci Rep. 6, 19332). Briefly cells were incubated with 10 μM 2′,7′-dichlorodihydrofluorescein diacetate (H2DCFDA; Invitrogen cat. #D399) for 15 min in the dark. […] An aliquot of 5 μL was spotted onto glass slides and covered with a cover slip prior to imaging. All images were acquired using a Leica DMI 6000 florescent microscope (Leica Microsystems GmbH, Wetzler Germany), equipped with a Sutter DG4 light source (Sutter Instruments, California, USA), Ludl emission filter wheel with Chroma band pass emission filters (Ludl Electronic Products Ltd., NY, USA) and Hamamatsu Orca AG camera (Hamamatsu Photonics, Herrsching am Ammersee, Germany). Images were acquired at 0.2 μm steps across 6 μm using a 63× oil-immersion objective with a 1.4 numerical aperture. Analysis of H2DCFDA fluorescence was performed using Velocity Software V4 (Perkin Elmer). Image J software was used to quantify the H2DCFDA fluorescence signal in cells as described by Schneider et al (Schneider et al., 2012, Nature Methods, 9, 671-675) with a slight modification. Briefly, background fluorescence was subtracted from the images and the total fluorescence of all the cells in the image was measured and divided by the number of cells in the image. The images contained a minimum of 100 cells. The ratio of fluorescence per cell of treated cultures was divided by that of untreated cultures to eliminate background endogenous ROS production.

COc1cc(C=CC=O)ccc1O [coniferyl aldehyde, 4-hydroxy-3-methoxycinnamaldehyde]
resistance of bna7Δ / protection by deletion of BNA7 [1]: does not provide protection
ROS signal in zwf1Δ compared to wild-type [2]: over two-fold induction
subcellular distribution of induced ROS [3]: formed punctate structures within the cell
